Consider 3 compounds from US11591359B2, “Enzyme-specific intracellularly-retained red fluorescent probe” (priority 2016, dated 2023).

The structures appear in SMILES notation. Entries after “also recorded” stand apart in the source; their conditions may differ.

Assay [1] addresses T1, β-galactosidase (Escherichia coli, UniProt P00722). The experiment in a line: Changes in absorption and fluorescence spectra by enzyme reaction. The conditions noted are these: 1 μM probe in PBS buffer, 5U β-galactosidase; for fluorescence emission in response to enzyme activity of β-galactosidase: excitation 610 nm, fluorescence 638 nm, 3600 seconds. The assay is classed as biochemical. On the procedure: For the probe compounds of the present invention obtained in Example 1 (4-CH2F-SPiDER-RED-βGal and 2-CH2F-SPiDER-RED-βGal), changes in absorption and fluorescence spectra according to the addition of β-galactosidase were measured. The measurement results of 4-CH2F-SPiDER-RED-βGal are shown in FIG. 1, and the measurement results of 2-CH2F-SPiDER-RED-βGal are shown in FIG. 2.
The measurement conditions are as follows: an excitation wavelength of 610 nm, a slit (excitation/fluorescence) of 2.5 nm/2.5 nm, and a photomultiplier voltage of 700 V.
Measurements were carried out by adding 5U β-galactosidase to 2-CH2F-SPiDER-RED-βGal prepared at 1 μM in a PBS buffer solution. […] The measurement conditions are as follows: an excitation wavelength of 610 nm, a slit (excitation/fluorescence) of 2.5 nm/2.5 nm, and a photomultiplier voltage of […].

For assay [2], the target named is T1, β-galactosidase. The experiment in a line: Labeling of fluorescent dye to BSA protein by β-galactosidase enzyme reaction in presence of BSA (SDS-PAGE fluorescence). The assay is classed as biochemical. The conditions noted are these: 1 mg/mL BSA, 5U β-galactosidase in PBS; for fluorescent labeling of BSA (fluorescence at the position of BSA after SDS electrophoresis): 10 μM compound, excitation 488 nm, fluorescence 540 to 600 nm. On the procedure: The measurement results of 4-CH2F-SPiDER-RED-βGal are shown in FIG. 3, and the measurement results of 2-CH2F-SPiDER-RED-βGal are shown in FIG. 4.
Using 1) 10 μL of a PBS buffer solution containing 10 μM […], 1 mg/mL BSA, and 5U β-galactosidase, 2) 10 μL of a PBS buffer solution containing 10 μM 4-CH2F-SPiDER-RED-βGal and 1 mg/mL BSA, 3) 10 μL of a PBS buffer solution containing 10 μM 4-CH2F-SPiDER-RED-βGal and 5U β-galactosidase, 4) 10 μL of a PBS buffer solution containing only 10 μM 4-CH2F-SPiDER-RED-βGal, and 5) 10 μL of a PBS buffer solution containing 10 μM 4-CH2OH-SPiDER-RED, the reaction products were subjected to SDS-PAGE (running gel: 10%, stacking gel: 4%, electrophoresis voltage: 200 V). […] After observation, each gel was Coomassie stained and the position of the BSA on the gel was confirmed (FIG. 3(b)).
FIGS. 4(a) and 4(b) show the results of similar measurement using 10 μM 2-CH2F-SPiDER-RED-βGal instead of 10 μM 4-CH2F-SPiDER-RED-βGal.

Assay [3] has as its system cells expressing β-galactosidase (HEK-lacZ). The assay is described as follows: Fluorescence imaging of living cells expressing β-galactosidase (co-culture, confocal microscope). The assay is classed as cell-based. The conditions noted are these: 37° C. for 30 minutes, no washing; excitation 594 nm, fluorescence 610 to 700 nm. On the procedure:
(§1) 4-CHF2-SPiDER-RED-βGal was added to a dish in which cells expressing β-galactosidase (HEK-lacZ) and cells not expressing β-galactosidase (HEK) were co-cultured, and incubated at 37° C. for 30 minutes. The HEK cells were previously stained with CellTracker (TM) Green. A fluorescence image and a transmitted light image were acquired using a confocal microscope (TCS SP5X; manufactured by Leica). White light laser (WLL) was used as laser, and HCX PL APO CS 40×/1.25 (40 times, manufactured by Leica) was used as an objective lens. The observation conditions were as follows: an excitation wavelength: 594 nm, a fluorescence wavelength: 610 to 700 nm, and a scale: 25 μm.

Assay [4] has as its system cells not expressing β-galactosidase (HEK). The assay is described as follows: Fluorescence imaging of living cells, co-cultured cells not expressing β-galactosidase. The assay is classed as cell-based. The conditions noted are these: 37° C. for 30 minutes, no washing; excitation 594 nm, fluorescence 610 to 700 nm. On the procedure:
as §1

The subject of assay [5] is Wing discs of a drosophila (en-lacZ/dpp-GFP) expressing β-galactosidase and GFP. The experiment in a line: Non-fixed fluorescence imaging of living biological tissue having β-galactosidase activity. The assay is classed as cell-based, Drosophila melanogaster. The conditions noted are these: room temperature for 2 hours, excitation 594 nm, fluorescence 601 to 681 nm. As for the experimental part: Next, we have examined whether the probe compound of the present invention, 4-CHF2-SPiDER-RED-βGal, can be applied to fluorescence imaging of living biological tissues by using drosophila tissues.
Wing discs of a drosophila (Drosophila melanogaster, en-lacZ/dpp-GFP) expressing β-galactosidase and GFP in some tissues were incubated with 4-CHF2-SPiDER-RED-βGal and Hoechst 33342 at room temperature for 2 hours, and then observed under a confocal microscope (TCS SP8, manufactured by Leica). White light laser (WLL) was used as laser, and HCX PL APO CS 40×/1.25 (40 times, manufactured by Leica) was used as an objective lens. The measurement conditions are as follows: excitation wavelengths: 405 nm (Hoechst 33342), 488 nm (GFP), 594 nm (4-CHF2-SPiDER-RED-βGal), fluorescence wavelengths: 420 to 490 nm (Hoechst 33342), 490 to 570 nm (GFP), 601 to 681 nm (4-CHF2-SPiDER-RED-βGal), and a scale: 75 μm.

T1 sequence (P00722 2-1024): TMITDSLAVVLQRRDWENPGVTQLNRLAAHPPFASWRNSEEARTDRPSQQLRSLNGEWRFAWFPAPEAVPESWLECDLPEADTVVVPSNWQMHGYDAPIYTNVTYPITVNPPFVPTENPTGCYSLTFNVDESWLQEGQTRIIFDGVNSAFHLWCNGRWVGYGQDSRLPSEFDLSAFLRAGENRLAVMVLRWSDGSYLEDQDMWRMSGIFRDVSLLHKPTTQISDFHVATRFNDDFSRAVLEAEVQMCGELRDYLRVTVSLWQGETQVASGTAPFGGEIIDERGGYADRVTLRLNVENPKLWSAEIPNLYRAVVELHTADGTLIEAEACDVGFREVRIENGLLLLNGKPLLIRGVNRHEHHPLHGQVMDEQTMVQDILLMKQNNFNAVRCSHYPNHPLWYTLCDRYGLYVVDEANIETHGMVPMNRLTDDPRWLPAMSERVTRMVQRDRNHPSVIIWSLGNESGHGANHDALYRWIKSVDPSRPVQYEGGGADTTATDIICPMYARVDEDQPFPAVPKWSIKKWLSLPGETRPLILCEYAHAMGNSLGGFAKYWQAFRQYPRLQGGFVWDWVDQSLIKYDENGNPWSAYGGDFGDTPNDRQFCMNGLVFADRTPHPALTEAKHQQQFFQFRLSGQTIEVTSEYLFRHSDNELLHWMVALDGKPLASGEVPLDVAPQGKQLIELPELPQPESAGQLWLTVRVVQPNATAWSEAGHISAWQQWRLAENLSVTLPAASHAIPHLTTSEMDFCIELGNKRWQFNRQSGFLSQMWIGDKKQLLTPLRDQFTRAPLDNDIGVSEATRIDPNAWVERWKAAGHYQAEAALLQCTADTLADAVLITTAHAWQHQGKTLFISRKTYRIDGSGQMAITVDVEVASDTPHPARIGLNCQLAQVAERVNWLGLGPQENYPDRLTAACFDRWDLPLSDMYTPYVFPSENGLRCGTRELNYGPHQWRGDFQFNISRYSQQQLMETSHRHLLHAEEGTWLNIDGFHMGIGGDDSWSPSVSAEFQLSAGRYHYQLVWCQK

Consider `CN(C)c1ccc2c(c1)[Si](C)(C)c1cc(O[C@@H]3O[C@H](CO)[C@H](O)[C@H](O)[C@H]3O)c(CF)cc1C21OC(=O)c2ccccc21` (some centres unmarked) [2-CH2F-SPiDER-RED-βGal], for which the “fluorescence emission in response to enzyme activity of β-galactosidase” value at β-galactosidase [1] is “emit fluorescence specifically in response to enzyme activity of β-galactosidase”. Further, the “fluorescent labeling of BSA (fluorescence at the position of BSA after SDS electrophoresis)” value (shortened to “fluorescent labeling of BSA”) on β-galactosidase [2] is “fluorescently label bovine serum albumin (BSA) protein”. On β-galactosidase [2] (listed as 2-CHF2-SPiDER-RED-βGal), the “fluorescent labeling of BSA” value is “BSA was fluorescently labeled”. Moreover, at β-galactosidase [2] (10 μM probe), the “fluorescence intensity of labeled BSA (comparison of the two probes)” value is recorded as “lower than that of 4-CHF2-SPiDER-RED-βGal” and the “reactivity with the enzyme” value is “low”.

For the compound `CN(C)c1ccc2c(c1)[Si](C)(C)c1c(ccc(O[C@@H]3O[C@H](CO)[C@H](O)[C@H](O)[C@H]3O)c1CF)C21OC(=O)c2ccccc21` (some centres unmarked) [4-CH2F-SPiDER-RED-βGal], on β-galactosidase [1], the “fluorescence increasing rate (comparison of the two probes)” value is on record as “higher fluorescence increasing rate than 2-CHF2-SPiDER-RED-βGal”, the “reactivity with β-galactosidase (comparison of the two probes)” value was “higher reactivity with β-galactosidase” and the “fluorescence emission in response to enzyme activity of β-galactosidase” value is listed as “emit fluorescence specifically in response to enzyme activity of β-galactosidase”. The “fluorescent labeling of BSA” value at β-galactosidase [2] is listed as “fluorescently label bovine serum albumin (BSA) protein”. For the same compound, the “red fluorescence in HEK-lacZ cells” value in assay [3] is recorded as “red fluorescence derived from the test compound was observed only in HEK-lacZ cells”. The “red fluorescence signal in HEK cells not expressing β-galactosidase” value in assay [4] is recorded as “no red fluorescence signal was obtained”. Besides, the “selective fluorescence imaging of the region / cells having β-galactosidase activity in living tissue” value in assay [5] (with Hoechst 33342, listed as 4-CHF2-SPiDER-RED-βGal) is given as “selective fluorescence imaging of the region having β-galactosidase activity was possible; also recorded: can be detected at a single-cell level”. Further, in assay [5], the “diffusion of fluorescence of the enzyme reaction product in tissue” value is on record as “no diffusion of fluorescence”.

On to `CN(C)c1ccc2c(c1)[Si](C)(C)c1c(ccc(O)c1CO)C21OC(=O)c2ccccc21` (centres unmarked) [4-CH2OH-SPiDER-RED, reference compound], for which, on β-galactosidase [2], the “fluorescent labeling of BSA” value is given as “fluorescence was not observed”.
